Test [1] addresses T1, α2 integrin over expressing CHO cell clone (CHO-α2) (Homo sapiens, UniProt P17301).
T1 construct: expressed in transfected cells; host or cells: CHO cell clone over-expressing α2 integrin (CHO-α2)
Briefly: Binding of C^14-labeled integrin inhibitor to CHO-α2 cells. The conditions noted are these: for binding of labeled compound in the presence of EDTA: CHO-α2 cells, 20 mM EDTA, 10 μM compound. The procedure:
(§1) The binding of C^14-labeled integrin inhibitory compound, hydrochloride salt of [4-(dimethylamino)phenyl]{[3-(4-fluorophenyl)phenyl]-sulfonyl}methylamine, was studied with CHO-wt cells and α2 integrin over expressing CHO cell clone (CHO-α2). CHO-wt cells have no collagen receptor integrins on their cell surface. Cells were fixed in 2% formaldehyde in PBS. After that cells were washed and suspended in reaction buffer (50 mM Tris-HCl pH 7.4, 5 mM MgCl2). To all samples 10 μM C^14-labeled inhibitory compound was added and the cells were incubated in the presence or absence of 20 mM EDTA for 1 h in +4° C. 20000 cells from each sample were loaded to GF/B glass microfibre filter (Whatman) and the samples were washed with 10 mL of the reaction buffer. The membranes were put to scintillation buffer (Optiphase HiSafe3, Perkin Elmer) and the activity was measured with the scintillation counter (Wallac 1415).

Test [2] concerns CHO-wt cells. Briefly: Binding of C^14-labeled integrin inhibitor to CHO-wt cells. The note with it: 20 mM EDTA, 10 μM compound, listed as C^u-labeled integrin inhibitor. The protocol:
as §1

Test [3] concerns the target T2, α2β1 integrin receptors (Homo sapiens, UniProt P05556+P17301).
T2 construct: endogenous in cells; host or cells: platelets in anticoagulated whole blood of healthy donors
Description: PFA-100 platelet function analysis, whole blood closure time. In kind it is cell-based. The note with it: Collagen/ADP cartridges, vs untreated control. The protocol:
The responsiveness of the genotyped healthy volunteers to a treatment involving the blockade of α2β1 integrin receptors was assessed by measuring the effect of synthetic α2β1 integrin inhibitors, such as sulphonamide derivatives disclosed e.g. in WO 2005/090298, on whole blood closure time in PFA-100 platelet function analysis. The PFA-100 analyzer is a high shear-inducing device that simulates primary haemostasis after injury of a small vessel. The system comprises a test-cartridge containing a biologically active membrane coated with collagen plus adenosine diphosphate (ADP). An anticoaculated whole blood sample is run through a capillary under a constant vacuum. […] Synthetic α2β1 integrin inhibitor was added to the whole blood sample obtained from each healthy volunteer, and the closure time was measured with PFA-100. […]
The effect of a synthetic α2β1 integrin inhibitor, sodium salt of 4-({[3-(4-fluorophenyl)phenyl]sulfonyl}amino)phenyl phenyl ketone (BTT-3016), on whole blood closure time in PFA-100 analysis was determined for donors representing each genotypic population. […] Samples were incubated at room temperature for 10 min., dispensed into PFA Collagen/ADP cartridges, and closure time was determined with PFA-100 (Dade Behring).

Entries after “also recorded” stand apart in the source; their conditions may differ.

T1 sequence (P17301 30-1181): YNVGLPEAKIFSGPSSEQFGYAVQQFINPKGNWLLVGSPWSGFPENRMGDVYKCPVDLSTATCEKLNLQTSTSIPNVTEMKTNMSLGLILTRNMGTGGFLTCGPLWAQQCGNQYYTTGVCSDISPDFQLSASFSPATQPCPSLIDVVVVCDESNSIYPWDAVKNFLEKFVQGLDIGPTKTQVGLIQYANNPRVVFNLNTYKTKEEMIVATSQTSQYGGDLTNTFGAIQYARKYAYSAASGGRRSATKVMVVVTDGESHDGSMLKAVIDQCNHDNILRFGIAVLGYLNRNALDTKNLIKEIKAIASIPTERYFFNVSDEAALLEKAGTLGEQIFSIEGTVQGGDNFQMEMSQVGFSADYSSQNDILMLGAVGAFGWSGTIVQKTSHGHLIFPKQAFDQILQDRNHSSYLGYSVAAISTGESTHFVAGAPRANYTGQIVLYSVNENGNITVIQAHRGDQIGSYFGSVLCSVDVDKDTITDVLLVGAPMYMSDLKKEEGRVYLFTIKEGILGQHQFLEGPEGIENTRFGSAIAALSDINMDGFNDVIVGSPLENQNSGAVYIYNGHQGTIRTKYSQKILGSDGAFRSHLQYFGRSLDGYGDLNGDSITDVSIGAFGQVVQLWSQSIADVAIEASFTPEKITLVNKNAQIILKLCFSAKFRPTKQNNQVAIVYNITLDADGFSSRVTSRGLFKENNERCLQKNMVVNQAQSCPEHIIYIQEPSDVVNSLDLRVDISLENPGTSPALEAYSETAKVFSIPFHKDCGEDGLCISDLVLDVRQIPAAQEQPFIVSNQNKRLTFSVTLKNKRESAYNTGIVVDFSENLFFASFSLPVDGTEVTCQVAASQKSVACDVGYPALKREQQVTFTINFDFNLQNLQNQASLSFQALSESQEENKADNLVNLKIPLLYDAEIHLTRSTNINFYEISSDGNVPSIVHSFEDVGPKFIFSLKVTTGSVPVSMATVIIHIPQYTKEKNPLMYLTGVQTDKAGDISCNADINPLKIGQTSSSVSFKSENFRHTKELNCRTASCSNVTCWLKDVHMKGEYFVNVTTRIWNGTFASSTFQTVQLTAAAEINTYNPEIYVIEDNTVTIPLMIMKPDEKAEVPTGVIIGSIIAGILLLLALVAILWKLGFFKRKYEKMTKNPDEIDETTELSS
T1 sequence (P05556 21-798 partner): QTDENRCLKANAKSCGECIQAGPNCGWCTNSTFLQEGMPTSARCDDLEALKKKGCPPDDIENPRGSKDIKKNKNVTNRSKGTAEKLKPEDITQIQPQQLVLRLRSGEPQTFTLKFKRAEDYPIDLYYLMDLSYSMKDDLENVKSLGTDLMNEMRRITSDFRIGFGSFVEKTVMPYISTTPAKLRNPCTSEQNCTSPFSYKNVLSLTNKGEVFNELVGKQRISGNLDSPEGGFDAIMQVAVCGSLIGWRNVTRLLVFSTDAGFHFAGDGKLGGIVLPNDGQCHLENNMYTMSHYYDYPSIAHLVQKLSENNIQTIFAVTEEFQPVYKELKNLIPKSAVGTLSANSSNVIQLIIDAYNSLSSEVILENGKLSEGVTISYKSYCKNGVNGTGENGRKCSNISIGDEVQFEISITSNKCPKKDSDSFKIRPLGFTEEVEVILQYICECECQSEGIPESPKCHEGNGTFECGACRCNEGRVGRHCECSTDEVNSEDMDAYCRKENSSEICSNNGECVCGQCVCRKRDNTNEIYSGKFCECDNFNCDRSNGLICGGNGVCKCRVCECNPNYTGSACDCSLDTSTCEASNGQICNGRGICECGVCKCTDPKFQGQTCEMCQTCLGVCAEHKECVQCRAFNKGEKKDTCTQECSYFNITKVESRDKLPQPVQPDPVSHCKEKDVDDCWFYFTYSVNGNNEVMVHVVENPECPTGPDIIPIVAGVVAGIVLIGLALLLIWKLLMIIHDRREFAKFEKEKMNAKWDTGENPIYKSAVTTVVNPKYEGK
T2 sequence (P17301 30-1181): as the sequence (P17301 30-1181) above
T2 sequence (P05556 21-798): as the sequence (P05556 21-798 partner) above

Take `CN(C)c1ccc(NCS(=O)(=O)c2cccc(-c3ccc(F)cc3)c2)cc1` [[4-(dimethylamino)phenyl]{[3-(4-fluorophenyl)phenyl]-sulfonyl}methylamine]: in test [1] (10 μM C^14-labeled compound, 1 h, +4° C, CHO-α2 compared with CHO-wt), the “binding of labeled compound to cells” value is “bound more efficiently to CHO-α2 cells than to CHO-wt cells”. Further, the “binding of labeled compound in the presence of EDTA” value in test [1] is given as “could be inhibited”; in test [1] (listed as C^u-labeled integrin inhibitor), “EDTA inhibits the binding”; in test [2], “not to CHO-wild type (wt) cells”.
For `O=C(c1ccccc1)c1ccc(NS(=O)(=O)c2cccc(-c3ccc(F)cc3)c2)cc1` [BTT-3016, 4-({[3-(4-fluorophenyl)phenyl]sulfonyl}amino)phenyl phenyl ketone], the “effect on whole blood closure time” value in test [3] (donors with high α2β1 expression (MEF≧35), genotype TT807 or CT807) is given as “increases the blood closure time; also recorded: increase the closure time statistically significantly”; in test [3] (donors with low integrin expression, genotype CC807) it was “non-responsive; also recorded: not efficacious”.

These data come from patent US20120052057A9, “METHOD FOR SELECTING RESPONDERS TO BLOCKADE OF INTEGRIN RECEPTORS” (priority 2007, published 2012).
